A word on the IC50: it is the concentration that inhibits the measured activity by half. A higher IC50 goes with a need for much substance.

One experiment addresses T1, full length human TREX1 (Homo sapiens, UniProt Q9NSU2).
T1 construct: N-terminally His-Tev tagged full length human TREX1; His-Tev (His tag with TEV site) (N); made in house; host or cells: E. coli
T1 sequence (Q9NSU2 1-314): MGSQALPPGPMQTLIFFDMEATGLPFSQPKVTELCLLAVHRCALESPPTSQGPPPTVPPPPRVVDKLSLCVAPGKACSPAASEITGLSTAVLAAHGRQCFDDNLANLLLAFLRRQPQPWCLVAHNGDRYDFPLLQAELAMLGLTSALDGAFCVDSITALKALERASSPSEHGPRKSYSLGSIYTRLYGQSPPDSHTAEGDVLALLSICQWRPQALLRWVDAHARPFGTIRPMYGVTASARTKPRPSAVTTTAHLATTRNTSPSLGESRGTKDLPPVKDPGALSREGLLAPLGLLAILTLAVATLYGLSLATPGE
The experiment in a line: TREX1 Biochemical Assay (fluorescence assay, degradation of dsDNA substrate). The note with it: 150 pM TREX1, 60 nM dsDNA substrate, 25 minutes at room temperature. On the procedure: Degradation of the dsDNA liberates free fluorophore to produce a fluorescent signal. Specifically, 7.5 μL of N-terminally His-Tev tagged full length human TREX1 (expressed in E. coli and purified in house) in reaction buffer (50 mM Tris (pH 7.4), 150 mM NaCl, 2 mM DTT, 0.1 mg/mL BSA, 0.01% (v/v) Tween-20 and either 100 mM MgCl2) was added to a 384-well Black ProxiPlate Plus (Perkin Elmer) which already contained compound (150 nL) at varying concentrations as a 10 point dose-response in DMSO. To this was added 7.5 μL of dsDNA substrate (Strand A: 5′ TEX615/GCT AGG CAG 3′; Strand B: 5′ CTG CCT AGC/IAbRQSp (Integrated DNA Technologies)) in reaction buffer. Final concentrations were 150 pM TREX1, 60 nM dsDNA substrate in reaction buffer with 1.0% DMSO (v/v). After 25 minutes at room temperature, reactions were quenched by the addition of 5 μL of stop buffer (same as reaction buffer plus 200 mM EDTA). Final concentrations in the quenched reaction were 112.5 pM TREX1, 45 nM DNA and 50 mM EDTA in a volume of 20 μL. After a 5-minute incubation at room temperature, plates were read in a laser sourced Envision (Perkin-Elmer), measuring fluorescence at 615 nm following excitation w/570 nm light. IC50 values were calculated by comparing the measured fluorescence at 615 nm ratio relative to control wells pre-quenched w/stop buffer (100% inhibition) and no inhibitor (0% inhibition) controls as using non-linear least square four parameter fits and either Genedata or GraphPad Prism (GraphPad Software, Inc.).

In experiment [1] the target is T2, human TREX2 (residues M44-A279) (Homo sapiens, UniProt Q9BQ50).
T2 construct: human TREX2 (residues M44-A279, expressed in E. coli); His-Tev (His tag with TEV site) (N); made in house; host or cells: E. coli
T2 sequence (Q9BQ50 44-279 isoform Q9BQ50-1): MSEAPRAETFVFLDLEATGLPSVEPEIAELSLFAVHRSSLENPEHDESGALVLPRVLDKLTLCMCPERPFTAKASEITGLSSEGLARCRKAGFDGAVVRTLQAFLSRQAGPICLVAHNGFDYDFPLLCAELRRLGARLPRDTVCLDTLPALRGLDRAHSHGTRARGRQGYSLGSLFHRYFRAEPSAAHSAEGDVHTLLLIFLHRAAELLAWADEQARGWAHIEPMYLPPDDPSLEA
The experiment in a line: TREX2 Biochemical Assay (fluorescence assay, degradation of dsDNA substrate). The settings on record: 2.5 nM TREX2, 60 nM dsDNA substrate, 25 minutes at room temperature. On the procedure: Degradation of the dsDNA liberates free fluorophore to produce a fluorescent signal. Specifically, 7.5 μL of N-terminally His-Tev tagged human TREX2 (residues M44-A279, expressed in E. coli and purified in house) in reaction buffer (50 mM Tris (pH 7.4), 150 mM NaCl, 2 mM DTT, 0.1 mg/mL BSA, 0.01% (v/v) Tween-20 and 100 mM MgCl2) was added to a 384-well Black ProxiPlate Plus (Perkin Elmer) which already contained compound (150 nL) at varying concentrations as a 10 point dose-response in DMSO. To this was added 7.5 μL of dsDNA substrate (Strand A: 5′ TEX615/GCT AGG CAG 3′; Strand B: 5′ CTG CCT AGC/IAbRQSp (IDT)) in reaction buffer. Final concentrations were 2.5 nM TREX2, 60 nM dsDNA substrate in reaction buffer with 1.0% DMSO (v/v). After 25 minutes at room temperature, reactions were quenched by the addition of 5 μL of stop buffer (same as reaction buffer plus 200 mM EDTA). Final concentrations in the quenched reaction mixture were […] TREX2, 45 nM DNA and 50 mM EDTA in a volume of 20 μL. After a 5-minute incubation at room temperature, plates were read in a laser sourced Envision (Perkin-Elmer), measuring fluorescence at 615 nm following excitation w/570 nm light. IC50 values were calculated by comparing the measured fluorescence at 615 nm ratio relative to control wells pre-quenched w/stop buffer (100% inhibition) and no inhibitor (0% inhibition) controls as using non-linear least square four parameter fits and either Genedata or GraphPad Prism (GraphPad Software, Inc.).

`CNC(=O)c1ccc(-c2cncc(N3CCC(O)(c4ccc(F)cc4)CC3)n2)cc1` [Example 21, 4-(6-(4-(4-fluorophenyl)-4-hydroxypiperidin-1-yl)pyrazin-2-yl)-N-methylbenzamide]: the results for the IC50 (at full length human TREX1; in experiment [1]) were 1 to 10 µM and more than 100 µM, respectively.

As to `CS(=O)(=O)c1ccc(-c2cncc(N3CCC(O)(c4ccc(F)cc4)CC3)n2)cc1` [Example 22, 4-(4-fluorophenyl)-1-(6-(4-(methylsulfonyl)phenyl)pyrazin-2-yl)piperidin-4-ol], the IC50 at full length human TREX1 is 1 to 10 µM; in experiment [1], more than 100 µM.

Regarding `N#Cc1ccccc1-c1cncc(N2CCC(O)(c3ccc(F)cc3)CC2)n1` [Example 23, 2-(6-(4-(4-fluorophenyl)-4-hydroxypiperidin-1-yl)pyrazin-2-yl)benzonitrile], the values for the IC50 (against full length human TREX1; in experiment [1]) were 1 to 10 µM and more than 100 µM, respectively.

`N#Cc1cccc(-c2cncc(N3CCC(O)(c4ccc(F)cc4)CC3)n2)c1` [Example 24, 3-(6-(4-(4-fluorophenyl)-4-hydroxypiperidin-1-yl)pyrazin-2-yl)benzonitrile]: the IC50 on full length human TREX1 was more than 10 µM; in experiment [1] it was more than 100 µM.

`OC1(c2ccc(F)cc2)CCN(c2cncc(-c3ccccc3F)n2)CC1` [Example 25, 4-(4-fluorophenyl)-1-(6-(2-fluorophenyl)pyrazin-2-yl)piperidin-4-ol]: the IC50 is 1 to 10 µM on full length human TREX1 and more than 100 µM in experiment [1].

For the compound `OC1(c2ccc(F)cc2)CCN(c2cncc(-c3cccc(F)c3)n2)CC1` [Example 26, 4-(4-fluorophenyl)-1-(6-(3-fluorophenyl)pyrazin-2-yl)piperidin-4-ol], the IC50 was 1 to 10 µM at full length human TREX1 and more than 100 µM in experiment [1].

As to `OC1(c2ccc(F)cc2)CCN(c2cncc(-c3ccc(F)cc3)n2)CC1` [Example 27, 4-(4-fluorophenyl)-1-(6-(4-fluorophenyl)pyrazin-2-yl)piperidin-4-ol], the IC50 was more than 10 µM at full length human TREX1 and more than 100 µM in experiment [1].

As to `COc1ccccc1-c1cncc(N2CCC(O)(c3ccc(F)cc3)CC2)n1` [Example 28, 4-(4-fluorophenyl)-1-(6-(2-methoxyphenyl)pyrazin-2-yl)piperidin-4-ol], the half-maximal inhibitory concentration (IC50) is more than 10 µM at full length human TREX1 and more than 100 µM in experiment [1].

Turning to `COc1ccc(-c2cncc(N3CCC(O)(c4ccc(F)cc4)CC3)n2)cc1` [Example 29, 4-(4-fluorophenyl)-1-(6-(4-methoxyphenyl)pyrazin-2-yl)piperidin-4-ol], the IC50 is more than 10 µM against full length human TREX1 and more than 100 µM in experiment [1].

With `N#Cc1ccc(-c2cncc(N3CCC(O)(c4ccc(F)cc4)CC3)n2)cc1` [Example 30, 4-(6-(4-(4-fluorophenyl)-4-hydroxypiperidin-1-yl)pyrazin-2-yl)benzonitrile], the IC50 against full length human TREX1 is 1 to 10 µM; in experiment [1], more than 100 µM.

As for `OC1(c2ccc(F)cc2)CCN(c2cncc(-c3ccccc3C(F)(F)F)n2)CC1` [Example 31, 4-(4-fluorophenyl)-1-(6-(2-(trifluoromethyl)phenyl)pyrazin-2-yl)piperidin-4-ol], the IC50 is 1 to 10 µM against full length human TREX1 and more than 100 µM in experiment [1].

Take `OC1(c2ccc(F)cc2)CCN(c2cncc(-c3cccc(C(F)(F)F)c3)n2)CC1` [Example 32, 4-(4-fluorophenyl)-1-(6-(3-(trifluoromethyl)phenyl)pyrazin-2-yl)piperidin-4-ol]: the results for the IC50 (against full length human TREX1; in experiment [1]) were more than 10 µM and more than 100 µM, respectively.

Regarding `OC1(c2ccc(F)cc2)CCN(c2cncc(-c3ccc(C(F)(F)F)cc3)n2)CC1` [Example 33, 4-(4-fluorophenyl)-1-(6-(4-(trifluoromethyl)phenyl)pyrazin-2-yl)piperidin-4-ol], the IC50 on full length human TREX1 is more than 10 µM; in experiment [1], more than 100 µM.

Regarding `Cc1ccc(-c2cncc(N3CCC(O)(c4ccc(F)cc4)CC3)n2)cc1` [Example 34, 4-(4-fluorophenyl)-1-(6-(p-tolyl)pyrazin-2-yl)piperidin-4-ol], the IC50 is 1 to 10 µM against full length human TREX1 and more than 100 µM in experiment [1].

As to `OC1(c2ccc(F)cc2)CCN(c2cncc(-c3ccncc3)n2)CC1` [Example 35, 4-(4-fluorophenyl)-1-(6-(pyridin-4-yl)pyrazin-2-yl)piperidin-4-ol], the IC50 at full length human TREX1 was 1 to 10 µM; in experiment [1], more than 100 µM.

For the compound `Cn1cc(-c2nccc(N3CCC(O)(c4ccc(F)cc4)CC3)n2)cn1` [Example 36, 4-(4-fluorophenyl)-1-(2-(1-methyl-1H-pyrazol-4-yl)pyrimidin-4-yl)piperidin-4-ol], the IC50 was 0.1 to 1 µM on full length human TREX1 and more than 100 µM in experiment [1].

For the compound `Cn1cc(-c2ccnc(N3CCC(O)(c4ccc(F)cc4)CC3)n2)cn1` [Example 37, 4-(4-fluorophenyl)-1-(4-(1-methyl-1H-pyrazol-4-yl)pyrimidin-2-yl)piperidin-4-ol], the figures for the IC50 (against full length human TREX1; in experiment [1]) were 1 to 10 µM and more than 100 µM, respectively.

On to `COC(=O)c1cc(-c2cnn(C)c2)nc(N2CCC(O)(c3ccc(F)cc3)CC2)c1` [Example 38, methyl 2-(4-(4-fluorophenyl)-4-hydroxypiperidin-1-yl)-6-(1-methyl-1H-pyrazol-4-yl)isonicotinate], for which the figures for the IC50 (against full length human TREX1; in experiment [1]) were 1 to 10 µM and more than 100 µM, respectively.

As for `Cc1nn(C)cc1-c1cc(C(N)=O)cc(N2CCC(O)(c3ccc(F)c(F)c3)CC2)n1` [Example 39, 2-(4-(3,4-difluorophenyl)-4-hydroxypiperidin-1-yl)-6-(1,3-dimethyl-1H-pyrazol-4-yl)isonicotinamide], the IC50 at full length human TREX1 was less than 0.1 µM; in experiment [1], 10 to 100 µM.

Consider `Cc1nn(C)cc1-c1cc(C(=O)NCc2ccccc2)cc(N2CCC(O)(c3ccc(F)c(F)c3)CC2)n1` [Example 40, N-benzyl-2-(4-(3,4-difluorophenyl)-4-hydroxypiperidin-1-yl)-6-(1,3-dimethyl-1H-pyrazol-4-yl)isonicotinamide], for which the figures for the IC50 (against full length human TREX1; in experiment [1]) were 0.1 to 1 µM and more than 100 µM, respectively.

`Cc1nn(C)cc1-c1cc(C(=O)N2CCCCC2)cc(N2CCC(O)(c3ccc(F)c(F)c3)CC2)n1` [Example 41, (2-(4-(3,4-difluorophenyl)-4-hydroxypiperidin-1-yl)-6-(1,3-dimethyl-1H-pyrazol-4-yl)pyridin-4-yl)(piperidin-1-yl)methanone]: the IC50 was less than 0.1 µM at full length human TREX1 and 10 to 100 µM in experiment [1].

Turning to `Cc1nn(C)cc1-c1cccc(N2CCC(O)(c3ccc(F)c(F)c3)CC2)n1` [Example 42, 4-(3,4-difluorophenyl)-1-(6-(1,3-dimethyl-1H-pyrazol-4-yl)pyridin-2-yl)piperidin-4-ol], the figures for the IC50 (against full length human TREX1; in experiment [1]) were 1 to 10 µM and more than 100 µM, respectively.

Turning to `Cc1cc(-c2cn(C)nc2C)nc(N2CCC(O)(c3ccc(F)c(F)c3)CC2)c1` [Example 43], the IC50 on full length human TREX1 is 0.1 to 1 µM; in experiment [1], more than 100 µM.

The values above are taken from patent US20220313701A1, “MODULATORS OF TREX1” (Constellation Pharmaceuticals, Inc., priority 2019, published 2022).
